Patent US9566224B2, “Tyrosinase inhibitors” (Avon Products, Inc., priority 2013, dated 2017)

Tested on: Mushroom tyrosinase
Test: Mushroom tyrosinase assay (conversion of L-Tyrosine to DOPAchrome)
Type: biochemical
Settings: 25° C., 30 min, absorbance 492 nm
Description: Mushroom Tyrosinase Assay. Mushroom tyrosinase and L-Tyrosine were obtained from Sigma-Aldrich, Inc. (St. Louis, Mo.). The enzyme activity was measured in buffer containing 100 mM phosphate buffer pH 6.8, 5% absolute ethanol, 2 micrograms/milliliter mushroom tyrosinase, and 0.2 mg/ml L-Tyrosine. The reaction (conversion of L-Tyrosine to DOPAchrome) was conducted in triplicates at 25° C. for 30 min, and absorbance was then measured at 492 nm. Kojic Acid was used as a positive control inhibitor in these assays. Percent change in tyrosinase activity relative to vehicle control was calculated.

Oc1ccc(C=NNC(=S)NCC2CCCO2)c(O)c1 (centres unmarked) [AV6989]
Tyrosinase Inhibition (percent change in tyrosinase activity compared to DMSO vehicle control) (concentration 0.001%): −36%
Tyrosinase Inhibition (percent change in tyrosinase activity compared to DMSO vehicle control) (concentration 0.01%): −75%
